Tested on: adult patients diagnosed with MDD
Test: Eight-week randomized, double-blind, placebo-controlled study: association of sequenced gene markers (Tables 1-17) with vilazodone response as change of MADRS
Assay type: in vivo, human
Settings: mean MADRS decrease
Source text: There was a wide range of inter-individual variability in response to vilazodone as well as to placebo and the active comparators. This variability may be partially due to genetic differences among the individuals treated. This example illustrates a randomized, double-blind, placebo-controlled, multicenter, eight-week study designed to discover genetic markers of response to vilazodone in adult patients diagnosed with MDD by the DSM-IV-TR criteria. Patients must have met all of the following inclusion criteria to be considered for enrollment in the study: (1) 18-65 years of age; (2) diagnosis of MDD, single episode or recurrent, according to DSM-IV-TR (296.2/296.3) with a current Major Depressive Episode of less than one year's duration with a minimum duration of at least 4 weeks; (3) HAM-D score≧22 on the first 17 items of the 21-item HAM-D at screening and baseline visits; (4) HAM-D item 1 (depressed mood) score≧2 at the screening visit and the baseline visit; (5) provision of written informed consent to participate; and (6) ability to speak, read and understand English and to respond to questions and follow simple instructions.
Following randomization into vilazodone and placebo groups, patients began the forced titration schedule. Patients received 10 mg qd until Visit 3 (approximately Day 7). At Visit 3 patients received 20 mg qd until Visit 4 (approximately Day 14). At Visit 4 patients received the target dose of 40 mg qd (approximately Day 15). A total of 152 patients completed the vilazodone arm, while 154 patients completed the placebo arm.
This example illustrates genotyping of the study group for the ACE, ATP5C3, BCL2L1, CYP2C9, DRD3, FOS, DTNBP1, GABRG3, GRIA4, LAMA4, MAPK1, NPY1R, OPRD1, OPRM1, PER3, PLCB1, and PSMD1 polymorphic sites selected by the inventors herein for analysis. Genomic DNA was isolated from blood obtained from each individual and amplified target regions containing the polymorphic sites in Tables A-21 to A-37 (Appendix A) were sequenced to determine the genotypes at these polymorphic sites. Tailed (Universal M13 Forward and Reverse) PCR primers were designed using the sequence of SEQ ID NO:1 for ACE, SEQ ID NO:2 for ATP5C3, SEQ ID NO:3 for BCL2L1, SEQ ID NO:4 for CYP2C9, SEQ ID NO:5 for DRD3, SEQ ID NO:6 for FOS, SEQ ID NO:7 for DTNBP1, SEQ ID NO:8 for GABRG3, SEQ ID NO:9 for GRIA4, SEQ ID NO:10 for LAMA4, SEQ ID NO:11 for MAPK1, SEQ ID NO:12 for NPY1R, SEQ ID NO:13 for OPRD1, SEQ ID NO:14 for OPRM1, SEQ ID NO:15 for PER3, SEQ ID NO:16 for PLCB1, and SEQ ID NO:17 for PSMD1. Amplified PCR products were sequenced using Applied Biosystems' Big Dye® Terminator v 3.1 cycle sequencing kit according to manufacturer's instructions. The reaction products were then electrophoresed using an Applied Biosystems 3700 or 3730xl DNA analyzer. Polymorphisms were identified using the Polyphred program, and confirmed by visual inspection.
Haplotypes were estimated from the unphased genotypes using a computer-implemented algorithm for assigning haplotypes to unrelated individuals in a population sample, essentially as described in WO 01/80156. In this method, haplotypes are assigned directly from individuals who are homozygous at all sites or heterozygous at no more than one of the variable sites. This list of haplotypes is then used to deconvolute the unphased genotypes in the remaining (multiply heterozygous) individuals.
This example illustrates analysis of the markers in Tables A-1 to A-17 (Appendix A) for association with vilazodone response. A proprietary algorithm was used as a tool for finding associations between markers and outcomes. The clinical outcomes were improvement in disease over eight weeks of treatment with vilazodone as measured by the MADRS scale. A linear model was first fitted on the covariates, which were treatment center, race, ethnicity, and baseline values. […]

[1] = PLCB1 marker 54, carriers vs non-carriers
[2] = PLCB1 marker 55, carriers vs non-carriers
[3] = PLCB1 marker 56, carriers vs non-carriers
[4] = PLCB1 marker 57, carriers vs non-carriers
[5] = PLCB1 marker 58, carriers vs non-carriers
[6] = PLCB1 marker 59, carriers vs non-carriers
[7] = PLCB1 marker 60, carriers vs non-carriers
[8] = PLCB1 marker 61, carriers vs non-carriers
[9] = PLCB1 marker 62, carriers vs non-carriers
[10] = PLCB1 marker 63, carriers vs non-carriers
[11] = PLCB1 marker 64, carriers vs non-carriers
[12] = PLCB1 marker 65, carriers vs non-carriers
[13] = PLCB1 marker 66, carriers vs non-carriers
[14] = PLCB1 marker 67, carriers vs non-carriers
[15] = PLCB1 marker 68, carriers vs non-carriers
[16] = PLCB1 marker 96, carriers vs non-carriers
[17] = PLCB1 marker 97, carriers vs non-carriers
[18] = PLCB1 marker 98, carriers vs non-carriers
[19] = PLCB1 marker 99, carriers vs non-carriers
[20] = PLCB1 marker 100, carriers vs non-carriers
[21] = PLCB1 marker 101, carriers vs non-carriers
[22] = PLCB1 marker 102, carriers vs non-carriers
[23] = PLCB1 marker 103, carriers vs non-carriers
[24] = PLCB1 marker 104, carriers vs non-carriers
[25] = PLCB1 marker 105, carriers vs non-carriers
[26] = PLCB1 marker 106, carriers vs non-carriers
[27] = PLCB1 marker 107, carriers vs non-carriers
[28] = PLCB1 marker 108, carriers vs non-carriers
[29] = PLCB1 marker 109, carriers vs non-carriers
[30] = PLCB1 marker 110, carriers vs non-carriers
[31] = PLCB1 marker 111, carriers vs non-carriers
[32] = PLCB1 marker 112, carriers vs non-carriers
[33] = PLCB1 marker 113, carriers vs non-carriers
[34] = PLCB1 marker 114, carriers vs non-carriers
[35] = PLCB1 marker 115, carriers vs non-carriers
[36] = PLCB1 marker 116, carriers vs non-carriers
[37] = PLCB1 marker 117, carriers vs non-carriers
[38] = PLCB1 marker 118, carriers vs non-carriers
[39] = PLCB1 marker 119, carriers vs non-carriers
[40] = PLCB1 marker 120, carriers vs non-carriers
[41] = PLCB1 marker 121, carriers vs non-carriers
[42] = PLCB1 marker 122, carriers vs non-carriers
[43] = PLCB1 marker 123, carriers vs non-carriers
[44] = PLCB1 marker 124, carriers vs non-carriers
[45] = PLCB1 marker 125, carriers vs non-carriers
[46] = PLCB1 marker 126, carriers vs non-carriers
[47] = PLCB1 marker 127, carriers vs non-carriers
[48] = PLCB1 marker 128, carriers vs non-carriers
[49] = PLCB1 marker 129, carriers vs non-carriers
[50] = PLCB1 marker 130, carriers vs non-carriers

Cl.N#Cc1ccc2[nH]cc(CCCCN3CCN(c4ccc5oc(C(N)=O)cc5c4)CC3)c2c1 [Vilazodone, 5-{4-[4-(5-Cyano-3-indolyl)-butyl]-1-piperazinyl}-benzofuran-2-carboxamide hydrochloride]
−5.8: Response difference (Cauc. only) [7]
−5.1: Response difference (all ethnic.) [1] | Response difference (all ethnic.) [6]
−4.7: Response difference (all ethnic.) [21] | Response difference (all ethnic.) [22] | Response difference (all ethnic.) [30] | Response difference (all ethnic.) [31] | Response difference (all ethnic.) [32] | Response difference (all ethnic.) [33] | Response difference (all ethnic.) [34] | Response difference (all ethnic.) [35] | Response difference (all ethnic.) [36] | Response difference (all ethnic.) [37] | Response difference (all ethnic.) [38] | Response difference (all ethnic.) [39] | Response difference (all ethnic.) [40] | Response difference (all ethnic.) [41] | Response difference (all ethnic.) [42] | Response difference (all ethnic.) [43]
−6.4: Response difference (Cauc. only) [6] | Response difference (Cauc. only) [8]
−7: Response difference (Cauc. only) [9] | Response difference (Cauc. only) [10] | Response difference (Cauc. only) [11] | Response difference (Cauc. only) [12] | Response difference (Cauc. only) [13] | Response difference (Cauc. only) [14] | Response difference (Cauc. only) [15]
−5.2: Response difference (all ethnic.) [8]
−6: Response difference (Cauc. only) [3] | Response difference (Cauc. only) [4] | Response difference (Cauc. only) [21] | Response difference (Cauc. only) [22]
−4.3: Response difference (all ethnic.) [2] | Response difference (all ethnic.) [3] | Response difference (all ethnic.) [4]
−5.6: Response difference (all ethnic.) [9] | Response difference (all ethnic.) [10] | Response difference (all ethnic.) [11] | Response difference (all ethnic.) [12] | Response difference (all ethnic.) [13] | Response difference (all ethnic.) [14] | Response difference (all ethnic.) [15]
−5.9: Response difference (Cauc. only) [2] | Response difference (Cauc. only) [44] | Response difference (Cauc. only) [45] | Response difference (Cauc. only) [46] | Response difference (Cauc. only) [47] | Response difference (Cauc. only) [48] | Response difference (Cauc. only) [49] | Response difference (Cauc. only) [50]
−5.4: Response difference (Cauc. only) [5]
−7.3: Response difference (Cauc. only) [16] | Response difference (Cauc. only) [17] | Response difference (Cauc. only) [18] | Response difference (Cauc. only) [19] | Response difference (Cauc. only) [20]
−4.2: Response difference (all ethnic.) [16] | Response difference (all ethnic.) [17] | Response difference (all ethnic.) [18] | Response difference (all ethnic.) [19] | Response difference (all ethnic.) [20] | Response difference (all ethnic.) [44] | Response difference (all ethnic.) [45] | Response difference (all ethnic.) [46] | Response difference (all ethnic.) [47] | Response difference (all ethnic.) [48] | Response difference (all ethnic.) [49] | Response difference (all ethnic.) [50]
−6.7: Response difference (Cauc. only) [30] | Response difference (Cauc. only) [31] | Response difference (Cauc. only) [32] | Response difference (Cauc. only) [33] | Response difference (Cauc. only) [34] | Response difference (Cauc. only) [35] | Response difference (Cauc. only) [36] | Response difference (Cauc. only) [37] | Response difference (Cauc. only) [38] | Response difference (Cauc. only) [39] | Response difference (Cauc. only) [40] | Response difference (Cauc. only) [41] | Response difference (Cauc. only) [42] | Response difference (Cauc. only) [43]
−6.6: Response difference (Cauc. only) [1] | Response difference (Cauc. only) [23] | Response difference (Cauc. only) [24] | Response difference (Cauc. only) [25] | Response difference (Cauc. only) [26] | Response difference (Cauc. only) [27] | Response difference (Cauc. only) [28] | Response difference (Cauc. only) [29]
−3.9: Response difference (all ethnic.) [5]
−4.6: Response difference (all ethnic.) [7] | Response difference (all ethnic.) [23] | Response difference (all ethnic.) [24] | Response difference (all ethnic.) [25] | Response difference (all ethnic.) [26] | Response difference (all ethnic.) [27] | Response difference (all ethnic.) [28] | Response difference (all ethnic.) [29]

Reference: patent US20090233942A1, “Genetic markers associated with response to antidepressants” (priority 2008, published 2009)
